Experiment [1] can be described thus: Cytotoxic concentration towards peripheral blood mononuclear cells. The experiment is classed as functional. The settings on record: Homo sapiens.
Another experiment concerns CCRF-CEM. In words: Cytotoxic concentration towards CEM cells. The experiment is classed as functional. The settings on record: Homo sapiens.
The target in experiment [2] is Human immunodeficiency virus type 1 reverse transcriptase (Human immunodeficiency virus 1, UniProt Q72547). Kind of experiment: Tested for the inhibition towards HIV-reverse transcriptase.
The nature of experiment [3]: Effective molar concentration required to inhibit the replication of HIV-1 in human peripheral blood mononuclear cells by 50% (PBMC) was determined. The experiment is classed as functional.

For the molecule `COC(=O)[C@H](Cc1c[nH]c2ccccc12)NP(=O)(O)OC[C@H]1O[C@@H](n2cc(C)c(=O)[nH]c2=O)C[C@@H]1N=[N+]=[N-]`, the CC50 (in experiment [1]; in the experiment with CCRF-CEM) was > 100 µM throughout. Besides, the IC50 – broadly, the concentration needed to halve the response being measured – in experiment [2] is > 100 µM. In addition, it took 0.01 µM to reach a half-maximal effect in experiment [3] (EC50).
Consider `COC(=O)[C@H](Cc1ccccc1)NP(=O)(O)OCC1OC(n2cc(C)c(=O)[nH]c2=O)CC1N=[N+]=[N-]` (stereo partly specified), for which the CC50 (in experiment [1]; in the experiment on CCRF-CEM) was > 100 µM each time. Also, the IC50 in experiment [2] was > 100 µM. For the same molecule, the 50% effective concentration (EC50) (as a rule, the concentration at which the effect is half-maximal) in experiment [3] was 0.6 µM.
As to `COC(=O)[C@H](Cc1c[nH]c2ccccc12)NP(=O)(OCCC#N)OCC1OC(n2cc(C)c(=O)[nH]c2=O)CC1N=[N+]=[N-]` (stereo partly specified), the CC50 (in experiment [1]; in the experiment on CCRF-CEM) was > 100 µM each time. In addition, the IC50 in experiment [2] was > 100 µM. Moreover, the EC50 in experiment [3] is 0.4 µM.
Take `COC(=O)[C@H](Cc1ccccc1)NP(=O)(OCCC#N)OCC1OC(n2cc(C)c(=O)[nH]c2=O)CC1N=[N+]=[N-]` (stereo partly specified): the half-maximal cytotoxic concentration (CC50) (in experiment [1]; with CCRF-CEM) was > 100 µM in each case. In addition, in experiment [2], the IC50 was > 100 µM. Besides, the EC50 in experiment [3] is > 1 µM.
In the case of `COC(=O)[C@H](Cc1ccccc1)NP(=O)(OC)OCC1OC(n2cc(C)c(=O)[nH]c2=O)CC1N=[N+]=[N-]` (stereo partly specified), the CC50 (as a rule, the concentration at which the toxic effect on the cells reaches its halfway point) in experiment [1] is > 100 µM; in the experiment on CCRF-CEM, > 50 µM. Also, in experiment [3], a half-maximal effect (EC50) was put at 0.09 µM.
The matching figures for `COC(=O)[C@H](Cc1c[nH]c2ccccc12)NP(=O)(OC)OCC1OC(n2cc(C)c(=O)[nH]c2=O)CC1N=[N+]=[N-]` (stereo partly specified): > 50 µM, > 50 µM and 0.3 µM.
Take `Cc1cn([C@H]2C[C@H](N=[N+]=[N-])[C@@H](CO)O2)c(=O)[nH]c1=O` [ZIDOVUDINE]: the CC50 in experiment [1] is > 100 µM; with CCRF-CEM, 14.3 µM. In experiment [2], this molecule returned a half-maximal inhibitory concentration (IC50) of 0.01 µM. A half-maximal effect in experiment [3] (EC50) was put at 0.08 µM.

The values above are taken from ChEMBL document CHEMBL1128792, “Aromatic amino acid phosphoramidate di- and triesters of 3-azido-3-deoxythymidine (AZT) are non-toxic inhibitors of HIV-1 replication” (Bioorg Med Chem Lett, 1995).
